Experimental data published in patent US5686486A, “4-hydroxy-benzopyran-2-ones and 4-hydroxy-cycloalkyl[b]pyran-2-ones useful to treat retroviral infections” (priority 1995, dated 1997).
Like-named read-outs stand apart in the source and are kept apart here.

Biological target: HIV-1 protease (Human immunodeficiency virus type 1 group M subtype B, UniProt P04585)
Assay: biochemical
Conditions: for inhibition at 0.123 µM: read-out: HIV-1 Protease % Inhib, dose 0.123 uM
In short: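 Percent inhibition derived from fluorescent cleavage product separated by filtration after streptavidin-bead capture of intact biotin/FITC substrate. Reaction: enzyme (10 μl, 0.1 μM stock) with substrate (20 μl, 0.2 μM stock) and compound, 1 h at room temperature in dark, pH 5.5 acetate buffer with 1.0 M NaCl and 0.05% NP-40.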

[1] = read-out: HIV-1 Protease % Inhib, dose 0.370 uM
[2] = read-out: HIV-1 Protease % Inhib, dose 1.100 uM
[3] = read-out: HIV-1 Protease % Inhib, dose 3.300 uM
[4] = read-out: HIV-1 Protease % Inhib, dose 10.000 uM
[5] = read-out: HIV-1 Protease % Inhib, dose 30.000 uM
[6] = dose 3.300 uM, read-out: HIV-1 Protease % Inhib
[7] = dose 10.000 uM, read-out: HIV-1 Protease % Inhib
[8] = dose 30.000 uM, read-out: HIV-1 Protease % Inhib
[9] = dose 1.100 uM, read-out: HIV-1 Protease % Inhib
[10] = dose 0.370 uM, read-out: HIV-1 Protease % Inhib

SMILES	inhibition at 0.123 µM	inhibition at 0.37 µM [1]	inhibition at 1.1 µM [2]	inhibition at 3.3 µM [3]	inhibition at 10 µM [4]	inhibition at 30 µM [5]	inhibition at 3.3 µM [6]	inhibition at 10 µM [7]	inhibition at 30 µM [8]	inhibition at 1.1 µM [9]	inhibition at 0.37 µM [10]	HIV-1 Protease % Inhib (dose 1.100 uM)	HIV-1 Protease % Inhib (dose 3.300 uM)	HIV-1 Protease % Inhib (dose 10.000 uM)	HIV-1 Protease % Inhib (dose 30.000 uM)
O=c1oc2c(c(O)c1C(c1cccc(NS(=O)(=O)c3ccc(Cl)cc3)c1)C1CC1)CCCCCC2 (centres unmarked) [Example 264, 4-Chloro-N-[3-[cyclopropyl(5,6,7,8,9,10-hexahydro4-hydroxy-oxo-2H-cycloocta[b]pyran-3-yl)methyl]phenyl]-benzenesulfonamide]	78.5%	89%	99.8%	104%	108%	109%									
O=c1oc2c(c(O)c1C(c1cccc(NS(=O)(=O)c3ccc4ccccc4c3)c1)C1CC1)CCCCCC2 (centres unmarked) [Example 266, N-[3-[Cyclopropyl(5,6,7,8,9,10-hexahydro-4-hydroxy-2-oxo-2H-cycloocta[b]pyran-3-yl)methyl]phenyl]-2-naphthalenesulfonamide]	79.8%	88.4%	104%	100%	105%	103%									
O=c1oc2c(c(O)c1C(c1cccc(NS(=O)(=O)c3ccc(C(F)(F)F)cc3)c1)C1CC1)CCCCCC2 (centres unmarked) [Example 267, N-[3-[Cyclopropyl(5,6,7,8,9,10-hexahydro-4-hydroxy-2-oxo-2H-cycloocta[b]pyran-3-yl)methyl]phenyl]-4-(trifluoromethyl)-benzenesulfonamide]	71.5%	83.9%	92%	107%	107%	110%									
O=c1oc2c(c(O)c1C(c1cccc(NS(=O)(=O)c3cccc4ccccc34)c1)C1CC1)CCCCCC2 (centres unmarked) [Example 270, N-[3-[Cyclopropyl(5,6,7,8,9,10-hexahydro4-hydroxy-2-oxo-2H-cycloocta[b]pyran-3-yl)methyl]phenyl]-1-naphthalenesulfonamide]	61.7%	93.1%	107%	111%	116%	115%									
O=c1oc2c(c(O)c1C(c1cccc(NS(=O)(=O)c3cc(Cl)ccc3Cl)c1)C1CC1)CCCCCC2 (centres unmarked) [Example 271, 2,5-Dichloro-N-[3-[cyclopropyl(5,6,7,8,9,10-hexahydro-4-hydroxy-2-oxo-2H-cycloocta[b]pyran-3-yl)methyl]phenyl]-benzenesulfonamide]		16.7%	47.5%	75.3%	88.8%	94.2%									
O=c1oc2c(c(O)c1C(c1cccc(NS(=O)(=O)c3ccc(Br)cc3)c1)C1CC1)CCCCCC2 (centres unmarked) [Example 272, 4-Bromo-N-[3-[cyclopropyl(5,6,7,8,9,10-hexahydro-4-hydroxy-2-oxo-2H-cycloocta[b]pyran-3-yl)methyl]phenyl]-benzenesulfonamide]	67.1%	85.2%	95.3%	96.2%	101%	104%									
O=c1oc2c(c(O)c1C(c1cccc(NS(=O)(=O)c3ccc([N+](=O)[O-])cc3)c1)C1CC1)CCCCCC2 (centres unmarked) [Example 273, N-[3-[Cyclopropyl(5,6,7,8,9,10-hexahydro-4-hydroxy-4-oxo-2H-cycloocta[b]pyran-3-yl)methyl]phenyl]4-nitro-benzenesulfonamide]	68.4%	92.3%	95.9%	98.2%	102%	108%									
O=c1oc2c(c(O)c1C(c1cccc(NS(=O)(=O)c3cccc([N+](=O)[O-])c3)c1)C1CC1)CCCCCC2 (centres unmarked) [Example 274, N-[3-[Cyclopropyl(5,6,7,8,9,10-hexahydro-4-hydroxy-2-oxo-2H-cycloocta[b]pyran-3-yl)methyl]phenyl]-3-nitro-benzenesulfonamide]	70%	88.2%	95.8%	98.8%	103%	105%									
COc1ccc(S(=O)(=O)Nc2cccc(C(c3c(O)c4c(oc3=O)CCCCCC4)C3CC3)c2)cc1 (centres unmarked) [Example 275, N-[3-[Cyclopropyl(5,6,7,8,9, 10-hexahydro-4-hydroxy-2-oxo-2H-cycloocta[b]pyran-3-yl)methyl]phenyl]-4-methoxy-benzenesulfonamide]	79.3%	120%	128%	131%	133%	131%									
O=C(O)c1ccc(S(=O)(=O)Nc2cccc(C(c3c(O)c4c(oc3=O)CCCCCC4)C3CC3)c2)cc1 (centres unmarked) [Example 276, 4-[[[3-[Cyclopropyl(5,6,7,8,9,10-hexahydro-4-hydroxy-2-oxo-2H-cycloocta[b]pyran-3-yl)methyl]phenyl]amino]sulfonyl]-benzoic acid]	53.4%	92.8%	99.3%	94.7%	112%	124%									
Cc1cc(C)c(S(=O)(=O)Nc2cccc(C(c3c(O)c4c(oc3=O)CCCCCC4)C3CC3)c2)c(C)c1 (centres unmarked) [Example 277, N-[3-[Cyclopropyl(5,6,7,8,9,10-hexahydro-4-hydroxy-2-oxo-2H-cycloocta[b]pyran-3-yl)methyl]phenyl]-2,4,6-trimethyl-benzenesulfonamide]							37.9%	79.9%	94.1%						
O=c1oc2c(c(O)c1C(c1cccc(NS(=O)(=O)c3ccc(F)cc3F)c1)C1CC1)CCCCCC2 (centres unmarked) [Example 279, N-[3-[Cyclopropyl(5,6,7,8,9,10-hexahydro-4-hydroxy-2-oxo-2H-cycloocta[b]pyran-3-yl)methyl]phenyl]-2,4-difluoro-benzenesulfonamide]	78.2%	97.3%	105%	103%	109%	94.8%									
CCCCOc1ccc(S(=O)(=O)Nc2cccc(C(c3c(O)c4c(oc3=O)CCCCCC4)C3CC3)c2)cc1 (centres unmarked) [Example 282, 4-Butoxy-N-[3-[cyclopropyl(5,6,7,8,9,10-hexahydro-4-hydroxy-2-oxo-2H-cycloocta[b]pyran-3-yl)methyl]phenyl]-benzenesulfonamide]							43.2%	65.3%	96.3%	10.6%					
CN(C)c1cccc2c(S(=O)(=O)Nc3cccc(C(c4c(O)c5c(oc4=O)CCCCCC5)C4CC4)c3)cccc12 (centres unmarked) [Example 283, N-[3-[Cyclopropyl(5,6,7,8,9,10-hexahydro4-hydroxy-2-oxo-2H-cycloocta[b]pyran-3-yl)methyl]phenyl]-5-(dimethylamino)-1-naphthalenesulfonamide]							64.2%	85.1%	80.2%	42.3%	10.6%				
O=c1oc2c(c(O)c1C(c1cccc(NS(=O)(=O)c3cccc(Cl)c3Cl)c1)C1CC1)CCCCCC2 (centres unmarked) [Example 285, 2,3-Dichloro-N-[3-[cyclopropyl(5,6,7,8,9,10-hexahydro4-hydroxy-2-oxo-2H-cycloocta[b]pyran-3-yl)methyl]phenyl]-benzenesulfonamide]	37.6%	73.8%	84.6%	95%	97.7%	91.8%									
Cc1cccc(Cl)c1S(=O)(=O)Nc1cccc(C(c2c(O)c3c(oc2=O)CCCCCC3)C2CC2)c1 (centres unmarked) [Example 287, 2-Chloro-N-[3-[cyclopropyl(5,6,7,8,9,10-hexahydro4-hydroxy-2-oxo-2H-cycloocta[b]pyran-3-yl)methyl]phenyl]-6-methyl-benzenesulfonamide]							68.2%	85.8%	86.7%	44.1%	14.1%	36.69%	64.32%	92.75%	106.21%
O=c1oc2c(c(O)c1C(c1cccc(NS(=O)(=O)c3cc(Cl)cc(Cl)c3)c1)C1CC1)CCCCCC2 (centres unmarked) [Example 288, 3,5-Dichloro-N-[3-[cyclopropyl(5,6,7,8,9,10-hexahydro-4-hydroxy-2-oxo-2H-cycloocta[b]pyran-3-yl)methyl]phenyl]-benzenesulfonamide]	46.9%	79.1%	90.5%	92.9%	105%	101%									
O=c1oc2c(c(O)c1C(c1cccc(NS(=O)(=O)c3cccc(Cl)c3)c1)C1CC1)CCCCCC2 (centres unmarked) [Example 289]	63.7%	80%	91.1%	97.3%	95.3%	101%									
O=c1oc2c(c(O)c1C(c1cccc(NS(=O)(=O)c3cccc(Br)c3)c1)C1CC1)CCCCCC2 (centres unmarked) [Example 291, 3-Bromo-N-[3-[cyclopropyl(5,6,7,8,9,10-hexahydro-4-hydroxy-2-oxo-2H-cycloocta[b]pyran-3-yl)methyl]phenyl]-benzenesulfonamide]	80.4%	108%	109%	122%	118%	117%									
